Consider one compound from patent publication US20220000872A1, “METHOD OF ENHANCING IMMUNE-BASED THERAPY” (OncoTracker, Inc., priority 2018, published 2022).

For test [1], the system named is PD-L1 gene expression. As to conditions: MM patient; after 4 months of treatment vs before treatment; qPCR. From the text: (§1) A second sample of BMMCs was collected after treatment with ruxolitinib, methylprednisolone, and lenalidomide.
A further test has as its system PD-L2 gene expression. The settings on record: MM patient; after 4 months of treatment vs before treatment; qPCR.
Source text: as §1

For test [2], the system named is PD-L1 gene expression. The experiment in a line: PD-L1 gene expression (qPCR) in MM BMMCs co-cultured with THP-1 monocytes. Format: cell-based, human. The settings on record: BMMCs from MM patient #3041 co-cultured with THP-1 monocytes, RUX 1 μM, 48 hours. As for the experimental part:
MM patient #3041 bone marrow mononuclear cells were co-cultured with THP-1 monocytes with or without RUX (from […] to 10 μM) for 48 hours.
Next, we investigated the effects of ruxolitinib (RUX) on PD-L1 and PD-L2 gene expression in MM bone marrow mononuclear cells (BMMCs) co-cultured with THP-1 monocytes. THP-1 monocytes co-cultured with primary BMMCs from MM patient #3041 were grown in the presence or absence of RUX (1 μM).

A further test concerns PD-L1 protein expression. The experiment in a line: PD-L1 protein expression on MM cells by flow cytometry, BMMCs co-cultured with HS-5 stromal cells. As to conditions: fresh MM BMMCs co-cultured with HS-5, 72 hours. Format: cell-based, human. As for the experimental part:
To investigate the effects of RUX on PD-L1 protein expression on myeloma cell membranes, fresh MM BMMCs were isolated from MM patients and co-cultured with stromal cells (HS-5, ATCC). After 72 hours, cells were fixed using 2% paraformaldehyde for 30 minutes on ice and washed with PBS twice. The cells were stained with anti-PD-L1 antibody conjugated with PE and anti-CD138 antibody conjugated with FITC antibody for 2 hrs and analyzed by flow cytometry using a Beckman Coulter FC500 cytometer with Cytomics CXP software (Beckman Coulter, Fullerton, Calif.).

A further test deals with MM cells. The experiment in a line: Dead MM cells by Trypan blue staining, BMMCs co-cultured with HS-5 stromal cells. Format: cell-based, human. The settings on record: MM BMMCs co-cultured with HS-5.
Test [3] concerns CD138+ myeloma tumor cells. The experiment in a line: Annexin V apoptosis assay of CD138-selected primary myeloma cells co-cultured with IL-2-stimulated T-cells. Format: cell-based, human. The settings on record: CD138+ cells with IL-2-stimulated SUP-T1 T cells; 72 hours; RUX at varying concentrations; rose from approximately 35% up to this value, concentration dependent. As for the experimental part: FIG. 10A depicts an apoptosis assay of fresh CD138-selected myeloma tumor cells combined with IL-2-stimulated T-cells (SUP-T1, ATCC) and treated with ruxolitinib (RUX) in vitro. T-cells were pre-treated with IL-2 (20 ng/ml) for 24 hours. Primary myeloma cells were CD138-selected using an immunoadsorption column and co-cultured with T cells with or without RUX at varying concentrations for 72 hours. Apoptosis in CD138+ cells was measured using the Annexin V assay per the manufacturer's protocol (Biovision) followed with flow cytometric analysis (FC-500 cytometer using Cytometrics CXP software, both Beckman Coulter). Minimal apoptosis was observed without T cells. Apoptosis occurred in a much higher proportion of myeloma tumor cells exposed to IL-2-stimulated T cells (FIG. 10A). RUX increased the fraction of cells that underwent apoptosis from approximately 35% up to about 65% in a concentration dependent fashion.

The test system of a further test is IL-2 gene expression. The experiment in a line: IL-2 gene expression (qPCR) in BMMCs from three MM patients. Format: cell-based, human. The settings on record: RUX 1 μM, 24 hours. As for the experimental part: BMMCs from three MM patients were treated with RUX (1 μM) for 24 hours with or without co-culture with T cells in vitro. IL-2 gene expression levels were determined using qPCR RUX induced IL-2 expression in BMMCs alone and those co-cultured with T cells (SUP-T1, ATCC) in Trans-well culture dishes.

Test [4] relates to PD-L2 gene and protein expression. The experiment in a line: PD-L2 gene and protein expression in MM tumor cells alone or co-cultured with stromal cells (Example 11). Format: cell-based, human. The settings on record: concentration dependent pattern. As for the experimental part:
BM mononuclear cells (MCs) and serum were collected from MM patients and healthy subjects after obtaining IRB approval. Single-cell suspensions were prepared from human MM LAGκ-1A xenografts which had been grown in the mice. The cells were cultured and treated with or without RUX and then were determined by qPCR, flow cytometric analysis, ELISA, and western blot.
(§2) We further investigated the effects of RUX on PD-L1 and PD-L2 expression in primary and stromal cells from MM patients' BM samples in vitro. […] We then determined whether RUX can augment the anti-MM effects of T-cells in vitro. […] To evaluate the efficacy of drugs in vivo, severe combined immune deficient mice implanted with the human MM xenograft LAGκ-2 were treated with RUX (30 mg/kg).

A further test has as its system MM cell. The experiment in a line: MM cell apoptosis in the presence of IL-2 stimulated T-cells (Example 11). Format: cell-based, human. As to conditions: RUX 0-5 μM; antibodies 0-10 μg/ml; concentration dependent. As for the experimental part:
We further investigated the effects of RUX on PD-L1 and PD-L2 expression in primary and stromal cells from MM patients' BM samples in vitro. […] We then determined whether RUX can augment the anti-MM effects of T-cells in vitro. […] To evaluate the efficacy of drugs in vivo, severe combined immune deficient mice implanted with the human MM xenograft LAGκ-2 were treated with RUX (30 mg/kg). […] In contrast, RUX had no effect on PD-1 expression on T-cells.

Test [5] has as its system PD-L1 expression in the xenograft. The experiment in a line: PD-L1 expression in human MM xenograft LAGκ-2 in severe combined immune deficient mice. It is filed as in vivo. As to conditions: LAGκ-2 in SCID mice; RUX 30 mg/kg; vs untreated control group. As for the experimental part:
as §2

In test [6] the test system is PD-1 expression on T-cells. The experiment in a line: PD-1 expression on T-cells (Example 11). Format: cell-based.
The next test relates to B7-H3. The experiment in a line: B7-H3 expression (qRT-PCR, flow cytometry, western blot) in MM cells (Example 12). It is filed as cell-based, human. As for the experimental part: (§3) Bone marrow mononuclear cells (BMMCs) were collected from MM patients after obtaining IRB approval. Single-cell suspensions were prepared from human MM LAGλ-1A xenografts which had been grown in severe combined immunodeficient mice. HS-5 stromal and SUP-T1 T cells were purchased from ATCC. The cells were cultured and treated with or without RUX and then subjected to qRT-PCR, flow cytometric analysis, and western blot analysis. For qRT-PCR, total RNA was extracted and applied to cDNA synthesis, followed by qPCR. Gene expression was analyzed in MM BMMCs alone or co-cultured with stromal cells or T cells with or without Rux treatment (1 μM) in vitro.

Another test relates to CD8 gene expression. The experiment in a line: CD8 gene expression in MMBM (Example 12). It is filed as cell-based, human. As for the experimental part: as §3
Next, we tested whether B7-H3 blockade by Rux could potentially restore exhausted T cell activity against myeloma cells in MMBM.

For another test, the system named is multiple myeloma. As to conditions: combined with a thalidomide derivative such as lenalidomide and optionally a steroid or glucocorticoid; cited from earlier work.

Entries after “also recorded” stand apart in the source; their conditions may differ.

Consider `N#CC[C@H](C1CCCC1)n1cc(-c2ncnc3[nH]ccc23)cn1` [RUX, ruxolitinib], for which the “PD-L1 gene expression in BMMCs” value in the test with PD-L1 gene expression [1] is on record as “down-regulates”. The “PD-L2 gene expression in BMMCs” value in the test with PD-L2 gene expression is given as “down-regulates”. For the same compound, the “PD-L1 gene expression in MM BMMCs” value with PD-L1 gene expression [2] is listed as “marked decrease; also recorded: inhibits”. In addition, the “PD-L1-expressing MM tumor cells” value in the test on PD-L1 protein expression is reported as “reduced in a concentration dependent manner”. Moreover, the “percentage of dead MM cells” value in the test with MM cells is given as “increased in a concentration dependent fashion”. For the same compound, in test [3], the “fraction of cells that underwent apoptosis” value is “about 65%”. Besides, in the test with IL-2 gene expression, the “IL-2 expression in BMMCs alone” value is “induced; also recorded: increased”. Also, in the test with IL-2 gene expression (SUP-T1 in Trans-well dishes), the “IL-2 expression in BMMCs co-cultured with T cells” value is “induced”. In addition, the “PD-L2 gene and protein expression in MM tumor cells” value in test [4] is “markedly reduced”. Also, the “MM cell apoptosis in the presence of IL-2 stimulated T-cells” value in the test on MM cell is on record as “increased”. In addition, the “PD-L1 expression in the xenograft” value in [5] was “significantly decreased”. The “PD-1 expression on T-cells” value in test [6] is given as “no effect”. Besides, in the test on B7-H3 (after 48-72 hours, Rux 1 μM), the “B7-H3 expression in BM from patients in PD co-cultured with stromal cells (HS-5)” value is “significantly reduced”, the “B7-H3 expression in MM cells (U266)” value is given as “significantly reduced” and the “B7-H3 expression in MMBMMCs in patients with PD” value was “significantly reduced”. In addition, the “B7H3 expression in human MM xenograft model LAGλ-1A” value with B7-H3 (cultured ex vivo) was “decreased”. Also, the “B7-H3 at protein levels” value with B7-H3 (flow cytometric analysis and western blotting) is reported as “suppressed”. Further, the “CD8 gene expression in BM cocultured with T cells” value with CD8 gene expression (SUP-T1) is “elevated”. Also, the “CD8 gene expression in MMBM with lower plasma percentages” value in the test on CD8 gene expression (plasma cell percentage <30%) is recorded as “increase”. For the same compound, the “efficacy in treating hematological malignancies (in particular, multiple myeloma)” value in the test with multiple myeloma is recorded as “effective”.
